In PubChem BioAssay AID1919006 (Molecular Pharmacology Branch, DTP, NCI, 2023):

Test system: 885512-296-R-J2-PDC complex spheroid growth, % test/control
Experiment: Anticancer human tumor 885512-296-R-J2-PDC patient-derived breast carcinoma cell line growth inhibition [AhR]
Details: for IC50: curve of first compound; for viability, T/C: stronger effect = lower value
Method in brief: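 Complex tumor spheroids co-cultured with HUVEC and human MSC stroma; AhR antagonists tested in combination with standard-of-care and investigational agents. Top concentration at or near clinical Cmax (else 10 microM), half-log dilutions; growth expressed as percent test/control.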

[1] = second compound 0.1 µM, first compound 0.0316 µM
[2] = second compound 0.1 µM, first compound 0.1 µM
[3] = second compound 0.316 µM, first compound 0.0316 µM
[4] = second compound 0.316 µM, first compound 0.1 µM
[5] = second compound 1 µM, first compound 0.0316 µM
[6] = second compound 1 µM, first compound 0.1 µM
[7] = second compound 3.16 µM, first compound 0.0316 µM
[8] = second compound 3.16 µM, first compound 0.1 µM
[9] = second compound 10 µM, first compound 0.0316 µM
[10] = second compound 10 µM, first compound 0.1 µM
[11] = second compound 0.1 µM, first compound 0.316 µM
[12] = second compound 0.1 µM, first compound 1 µM
[13] = second compound 0.1 µM, first compound 3.16 µM
[14] = second compound 0.1 µM, first compound 10 µM
[15] = second compound 0.316 µM, first compound 0.316 µM
[16] = second compound 0.316 µM, first compound 1 µM
[17] = second compound 0.316 µM, first compound 3.16 µM
[18] = second compound 0.316 µM, first compound 10 µM
[19] = second compound 1 µM, first compound 0.316 µM
[20] = second compound 1 µM, first compound 1 µM
[21] = second compound 1 µM, first compound 3.16 µM
[22] = second compound 1 µM, first compound 10 µM
[23] = second compound 3.16 µM, first compound 0.316 µM
[24] = second compound 3.16 µM, first compound 1 µM
[25] = second compound 3.16 µM, first compound 3.16 µM
[26] = second compound 3.16 µM, first compound 10 µM
[27] = second compound 10 µM, first compound 0.316 µM
[28] = second compound 10 µM, first compound 1 µM
[29] = second compound 10 µM, first compound 3.16 µM
[30] = second compound 10 µM, first compound 10 µM
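Also: spheroids exposed to compounds for seven days.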

SMILES | IC50 (second compound 0.1 µM) [nM] | IC50 (second compound 0.316 µM) [nM] | IC50 (second compound 1 µM) [nM] | IC50 (second compound 3.16 µM) [nM] | IC50 (second compound 10 µM) [nM] | viability, T/C [1] [%] | viability, T/C [2] [%] | viability, T/C [3] [%] | viability, T/C [4] [%] | viability, T/C [5] [%] | viability, T/C [6] [%] | viability, T/C [7] [%] | viability, T/C [8] [%] | viability, T/C [9] [%] | viability, T/C [10] [%] | viability, T/C [11] [%] | viability, T/C [12] [%] | viability, T/C [13] [%] | viability, T/C [14] [%] | viability, T/C [15] [%] | other results
Cn1ncnc1C1c2n[nH]c(=O)c3cc(F)cc(c23)NC1c1ccc(F)cc1 (stereo not given) + Cc1cncc(-c2nc(NCCc3c[nH]c4ccccc34)c3ncn(C(C)C)c3n2)c1 | > 100 | > 100 | > 100 | 35.2 | < 0.316 | 82.4 | 56.2 | 76 | 53.5 | 68.3 | 51.8 | 49.2 | 45.7 | 22.1 | 21.6 | – | – | – | – | – | viability, T/C (second compound 0.1 µM, first compound 0.000316 µM): 116%; viability, T/C (second compound 0.1 µM, first compound 0.001 µM): 112%; viability, T/C (second compound 0.1 µM, first compound 0.00316 µM): 99.8%; viability, T/C (second compound 0.1 µM, first compound 0.01 µM): 99.1%; viability, T/C (second compound 0.316 µM, first compound 0.000316 µM): 120%; viability, T/C (second compound 0.316 µM, first compound 0.001 µM): 108%; viability, T/C (second compound 0.316 µM, first compound 0.00316 µM): 105%; viability, T/C (second compound 0.316 µM, first compound 0.01 µM): 87.4%; viability, T/C (second compound 1 µM, first compound 0.000316 µM): 87.1%; viability, T/C (second compound 1 µM, first compound 0.001 µM): 99.5%; viability, T/C (second compound 1 µM, first compound 0.00316 µM): 79.4%; viability, T/C (second compound 1 µM, first compound 0.01 µM): 74.9%; viability, T/C (second compound 3.16 µM, first compound 0.000316 µM): 55.2%; viability, T/C (second compound 3.16 µM, first compound 0.001 µM): 58.4%; viability, T/C (second compound 3.16 µM, first compound 0.00316 µM): 54.6%; viability, T/C (second compound 3.16 µM, first compound 0.01 µM): 54.5%; viability, T/C (second compound 10 µM, first compound 0.000316 µM): 23.8%; viability, T/C (second compound 10 µM, first compound 0.001 µM): 21.6%; viability, T/C (second compound 10 µM, first compound 0.00316 µM): 21.3%; viability, T/C (second compound 10 µM, first compound 0.01 µM): 18.1%
NS(=O)(=O)OCC1CC(n2ccc3c(NC4CCc5ccccc54)ncnc32)CC1O (stereo not given) + Cc1cncc(-c2nc(NCCc3c[nH]c4ccccc34)c3ncn(C(C)C)c3n2)c1 | 90.4 | 89.4 | 77.4 | 43.6 | < 31.6 | 96.2 | 45.6 | 89.7 | 45.6 | 81.3 | 41 | 58.5 | 28 | 10.3 | 8.3 | 16.5 | 8.26 | 5.94 | 6.36 | 17.4 | viability, T/C [16]: 6.34%; viability, T/C [17]: 6.04%; viability, T/C [18]: 5.52%; viability, T/C [19]: 13.9%; viability, T/C [20]: 5.67%; viability, T/C [21]: 4.18%; viability, T/C [22]: 4.92%; viability, T/C [23]: 8.09%; viability, T/C [24]: 3.67%; viability, T/C [25]: 3.02%; viability, T/C [26]: 2.73%; viability, T/C [27]: 3.54%; viability, T/C [28]: 2.33%; viability, T/C [29]: 1.76%; viability, T/C [30]: 1.73%
O=C(C=Cc1cccc(S(=O)(=O)Nc2ccccc2)c1)NO + Cc1cncc(-c2nc(NCCc3c[nH]c4ccccc34)c3ncn(C(C)C)c3n2)c1 | 1010 | 1340 | 680 | 153 | < 31.6 | 77.7 | 93.9 | 86.3 | 80.5 | 96.1 | 72.5 | 52.2 | 62 | 20.6 | 20.6 | 70.5 | 45 | 30.8 | 7.26 | 74.2 | viability, T/C [16]: 50%; viability, T/C [17]: 37.5%; viability, T/C [18]: 7.14%; viability, T/C [19]: 65.2%; viability, T/C [20]: 41.1%; viability, T/C [21]: 31.1%; viability, T/C [22]: 9.39%; viability, T/C [23]: 39.5%; viability, T/C [24]: 31.8%; viability, T/C [25]: 21.8%; viability, T/C [26]: 10.2%; viability, T/C [27]: 19.5%; viability, T/C [28]: 16%; viability, T/C [29]: 12.6%; viability, T/C [30]: 5.42%
